Measured values taken from US20080269173A1, “Composition for Stimulating Growth of Dermal Papilla Cells and Promoting Hair Follicle Growth Comprising Vitamin C Derivatives” (Trichogene Inc., priority 2005, published 2008).

What was measured:
human dermal fibroblast = conditions: Hata et al., 1988; cited from earlier work
osteoblast = conditions: Hata et al., 1988; cited from earlier work
[1] = aqueous solution, general culture conditions; cited from earlier work
[2] = tested on: human anagen hair follicle; assay: In vitro growth of isolated human anagen hair follicles (organ culture, length measurement); format: cell-based; conditions: 0.05 mM and 0.25 mM, 9 days, Williams E medium; P<0.05
Procedure: Biopsy samples were obtained from a […] region of scalp of a patient with androgenic alopecia during the hair transplantation operation with their approval in the Kyungpook National University hospital. The hair follicles were isolated and incubated according to the known method (Philpott et al., J Cell Sci. 97:463-471, 1990).
The anagen hair follicles were isolated from the scalp under a stereoscopic binocular microscope. Upper one third of the isolated anagen hair follicles were cut out, and lower two third of them were incubated at 37° C. in a Williams E medium (Sigma, USA) under a 5% CO2 atmosphere. The hair follicles were incubated for 9 days in a medium including Asc 2-P, and then their length was measured using a stereoscopic microscope.

dermal papilla cells [3] = assay: Growth of cultured dermal papilla cells (MTT method); format: cell-based, human; conditions: 0.25 mM, 5 days
Procedure: The dermal papilla was isolated from a bulb of the severed hair follicles under the binocular microscope, and then transferred into a tissue culture dish. The dermal papilla was cultured at 37° C. for 5 days under a 5% CO2 atmosphere in the DMEM medium supplemented with penicillin (100 U/ml), streptomycin (100 μg/ml) and 20% heat-inactivated fetal bovine serum (FBS, Hyclone, USA), and then subcultured in the same condition. The dermal papilla cells were kept in the DMEM including 10% FBS after the subculture. The secondary subcultured cells were used in the present invention.
The dermal papilla cells were incubated overnight at a density of 5,000 cells/well in a 96-well plate containing a DMEM medium supplemented with 10% FBS. The medium was then exchanged to the DMEMs including varied concentrations of Asc 2-P and incubated for 5 days, and then the cell number was measured using a MTT method.

dermal papilla cells [4] = assay: RT-PCR gene expression (mRNA) in dermal papilla cells; format: cell-based, human; conditions: 0.25 mM, 5 days
Procedure: The dermal papilla cells were incubated for 5 days in a medium including 0.25 mM Asc 2-P, and then their RNA was isolated using a TRIzol reagent (Gibco-BRL, Grand Island, N.Y.). cDNA was synthesized from the RNA using a cDNA synthesis kit containing superscript II reverse transcriptase and random hexamer (Gibco-BRL). The cDNA was amplified with sets of gene-specific primers (Table 1).
Gene expression levels of IGF-1 (insulin like growth factor 1), HGF (hepatocyte growth factor), VEGF (vascular endothelial growth factor), KGF (keratinocyte growth factor), collagen I, collagen III, versican and alkaline phosphatase (ALP) were analyzed in the present invention.

[5] = tested on: versican in the hair follicle; assay: Immunostaining of versican in hair follicle; format: cell-based, human; conditions: 0.1 mM and 1 mM, 5 days
Procedure: The hair follicles were incubated for 5 days in the media treated with 0.1 mM and 1 mM Asc 2-P, and then their immunostaining experiments were conducted against versican.

Row | SMILES | growth of human dermal fibroblast (human dermal fibroblast) | growth of osteoblast (osteoblast) | stability [1] | growth (length) of hair follicle [2] | growth of dermal papilla cells (cell number, MTT) (dermal papilla cells [3]; 0.05 mM, 1 mM and 5 mM, P<0.05) | growth of dermal papilla cells relative to the control group (dermal papilla cells [3]; MTT) [times] | HGF mRNA (dermal papilla cells [4]) | IGF-1 mRNA (dermal papilla cells [4]) | KGF mRNA (dermal papilla cells [4]) | VEGF mRNA (dermal papilla cells [4]) | alkaline phosphatase (ALP) mRNA (dermal papilla cells [4]) | collagen I mRNA (dermal papilla cells [4]) | collagen III mRNA (dermal papilla cells [4]) | versican mRNA (dermal papilla cells [4]) | expression of versican in the hair follicle (immunostaining) [5]
1 | O=C1O[C@H]([C@@H](O)CO)C(O)=C1O [vitamin C, L-ascorbic acid] | stimulates growth | stimulates growth | rapidly oxidized and degraded | – | – | – | – | – | – | – | – | – | – | – | –
2 | O=C1O[C@H]([C@@H](O)CO)C(O)=C1OP(=O)(O)O [Asc 2-P, L-ascorbic acid-2-phosphate magnesium] | stimulates growth | stimulates growth | more stable than the vitamin C | significantly grown | significantly stimulated growth | 2.4 | no effect | increased | no effect | no effect | increased | no effect | no effect | increased | increased
